How the values were obtained:
[1] = target: Human immunodeficiency virus type 1 reverse transcriptase (Human immunodeficiency virus 1, UniProt Q72547); assay: Inhibition of wild type HIV1 reverse transcriptase RNasH activity
[2] = Inhibition of HIV1 reverse transcriptase D443N mutant RNA-dependent DNA plymerase activity; set-up: species or system Human immunodeficiency virus 1
[3] = target: Human immunodeficiency virus type 1 integrase (Human immunodeficiency virus 1, UniProt Q7ZJM1); assay: Inhibition of HIV1 integrase strand transfer activity
Sequence of Human immunodeficiency virus type 1 integrase (Q7ZJM1 whole entry): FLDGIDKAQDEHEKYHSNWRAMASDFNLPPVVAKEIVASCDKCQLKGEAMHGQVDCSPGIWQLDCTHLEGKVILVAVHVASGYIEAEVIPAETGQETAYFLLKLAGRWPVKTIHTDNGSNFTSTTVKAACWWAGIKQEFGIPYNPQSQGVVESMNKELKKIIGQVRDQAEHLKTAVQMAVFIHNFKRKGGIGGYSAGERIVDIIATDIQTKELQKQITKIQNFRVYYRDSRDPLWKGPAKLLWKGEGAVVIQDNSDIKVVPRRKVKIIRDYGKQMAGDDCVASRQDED

[4] = tested on: Human immunodeficiency virus 1; assay: Antiviral activity against HIV1 HXB2 infected in human HeLaP4-2 cells assessed as inhibition of single-cycle viral replication; type: functional, organism-based; conditions: Human immunodeficiency virus 1, HXB2, HeLaP4-2
[5] = Cytotoxicity against human HeLaP4-2 cells by alamar blue assay; type: cell-based
[6] = Therapeutic index, ratio of CC50 for human HeLaP4-2 cells to IC50 for HIV1 HXB2 infected in human HeLaP4-2 cells; type: cell-based; conditions: HeLaP4-2 cells infected with HIV1 HXB2, read-out: Ratio CC50/IC50
[7] = Lipophilicity, log P of the compound; type: physicochemical; conditions: octanol/water
[8] = tested on: Human immunodeficiency virus 1; assay: Selectivity ratio of IC50 for HIV1 integrase N155H mutant strand transfer activity to IC50 for HIV1 integrase strand transfer activity
[9] = tested on: Human immunodeficiency virus 1; assay: Selectivity ratio of IC50 for HIV1 integrase Q148R mutant strand transfer activity to IC50 for HIV1 integrase strand transfer activity
[10] = tested on: Human immunodeficiency virus 1; assay: Selectivity ratio of IC50 for HIV1 integrase Y143R mutant strand transfer activity to IC50 for HIV1 integrase strand transfer activity
[11] = tested on: Human immunodeficiency virus 1; assay: Antiviral activity against HIV1 3B infected in human MT4 cells assessed as decrease in viral p24 antigen level after 14 to 21 days; type: functional; conditions: Human immunodeficiency virus 1, 3B
MT4 = assay: Cytotoxicity against human MT4 cells at 1.5 uM; type: cell-based; conditions: mt4, 1.5 µM
[12] = tested on: Human immunodeficiency virus 1; assay: Selectivity ratio of IC50 for HIV1 reverse transcriptase D443N mutant RNA-dependent DNA plymerase activity to IC50 for wild type HIV1 reverse transcriptase RNasH activity
[13] = tested on: Human immunodeficiency virus 1; assay: Selectivity ratio of IC50 for HIV1 integrase strand transfer activity to IC50 for wild type HIV1 reverse transcriptase RNasH activity
[14] = Cytotoxicity against human HeLaP4-2 cells up to 50 uM by alamar blue assay; type: cell-based

| Structure (SMILES) | IC50 [1] [µM] | IC50 [2] [µM] | IC50 [3] [µM] | IC50 [4] [µM] | CC50 [5] [µM] | selectivity ratio [6] | logP [7] | Ratio IC50 [8] | Ratio IC50 [9] | Ratio IC50 [10] | IC95 [11] [µM] | Activity (MT4) | Ratio IC50 [12] | Ratio IC50 [13] | Activity [14] |
| --- | --- | --- | --- | --- | --- | --- | --- | --- | --- | --- | --- | --- | --- | --- | --- |
| O=c1cc(-c2cccc(-c3ccccc3)c2)c2cccnc2n1O | 0.64 | 9 | 2.4 | 34 | > 50 |  |  |  |  |  |  |  |  |  |  |
| NCc1cccc(-c2cccc(-c3cc(=O)n(O)c4ncccc34)c2)c1 | 0.15 | 5.1 | 9.1 | 0.85 | 4.9 | 3 |  |  |  |  |  |  |  |  |  |
| NCc1ccc(-c2cccc(-c3cc(=O)n(O)c4ncccc34)c2)cc1 | 0.13 | 16 | 7.8 | 0.62 | 2.3 | 3 |  |  |  |  |  |  |  |  |  |
| NCc1ccc(-c2ccc(Cc3cc(=O)n(O)c4ncccc34)cc2)cc1 | 0.045 | 13 | 24 | 0.19 | 3.3 | 17 | 0.15 | 1.1 | 1.9 | 0.84 | 0.92 | Non-toxic |  |  |  |
| NCc1ccccc1-c1cccc(-c2cc(=O)n(O)c3ncccc23)c1 | 0.67 | 36 | 18 | 2.8 | 9.1 | 3 |  |  |  |  |  |  |  |  |  |
| O=c1ccc2cccnc2n1O | 1.4 | > 50 | 15 | 4.5 | 20 | 4 |  |  |  |  |  |  | 30 | 10 |  |
| CCOC(=O)c1c(O)c2cccnc2n(O)c1=O | 0.11 |  |  | 2.5 |  |  | 2.2 |  |  |  |  |  |  |  | Non-toxic |
| NCc1ccc(-c2cccc(Cc3cc(=O)n(O)c4ncccc34)c2)cc1 | 0.1 | 11 | 8.1 | 0.43 | 4.6 | 11 |  |  |  |  |  |  |  |  |  |

Reference: ChEMBL document CHEMBL1268904, “Potent and selective HIV-1 ribonuclease H inhibitors based on a 1-hydroxy-1,8-naphthyridin-2(1H)-one scaffold” (Bioorg Med Chem Lett, 2010)
